Key:
Type in all cases: in vivo, rat
[1] = CFA arthritis rats, hematological parameters; details: for effect on blood parameters compared to vehicle-treated arthritic group: E3 1 mg/kg or 911 10 mg/kg i.v. D14+D19, indomethacin 3 mg/kg/day p.o. 10 days; for Hematocrit / Hemoglobin / Platelets / Red blood cells / White blood cells: arthritic rats, E3 1 mg/kg or 911 10 mg/kg i.v. D14+D19, indomethacin 3 mg/kg p.o. over 10 days, D24
Description: On Day 24 (after paw volume and arthritis index measurements and test vocalization), under general anaesthesia using isoflurane (in a mixture of oxygen and nitrous oxide), the blood samples (about 800-1000 μl) was collected by capillary action with a micropipette from retroorbital sinus.
Blood collection for hematological parameters (groups 1-2-3-4-5: 50 vials): A part of blood sample was collected in tubes containing K3—EDTA (at least 100 μL). The determination of parameters were performed on the day of the collection and the samples were not stored. The hematological parameters including red blood cells, white blood cells, platelets, hemoglobin, hematocrit were measured with a hematology cell counter (D 24). Some hematological parameters were not measured due to the clotted samples (vehicle-freated non arthritic rat: #10; E3-treated arthritic rats: #59, #67; 911-treated arthritic rats: #16).

[2] = test system: complete Freund's adjuvant (CFA)-induced chronic arthritis; assay: CFA arthritis rats, X-ray analysis of hindpaws (radiological index); details: for X-ray score: Deformity / X-ray score: Demineralization / X-ray score: Erosions / X-ray score: Periostal reaction / X-ray score: Soft tissue damage / X-ray score: Space joint / X-ray score: osteogenesis: score 0-4
Description: On Day 24, after blood collecting the animals were sacrificed and X-ray radiographies (hindpaws) were obtained for assessment of joint lesions. X-ray analysis was focused on articular erosions, articular space, periosteum abnormalities on both hindpaws. All the radiographies were analyzed by looking at seven different items: the soft tissue damage, deformity, demineralization, joint space, erosions, osteogenesis and periostal reaction. For each animal, the first six items were analyzed independently by looking at the worse hind foot. The periostal reaction was analyzed by looking at the tail. For each item, the score goes from 0 (normal) to 4 (maximal damage). Therefore the total score goes from 0 to 28. The radiographic interpretation was done by the same reader without knowing anything about the animals (treated or not treated).
(§1) All results were reported as Mean ±S.E.M. of 10 rats in each group at each time point. Paw volume was expressed in ml calculated from the mean value of the right and left paw volume. Arthritis index was calculated from the sum of the score obtained for each of the 4 paws. The nociceptive response was evaluated by the intensity of the level of vocalization recorded for each animal (mean of 4 values: 2 times/paw) in mV. The percentage inhibition of the nociceptive response was calculated from the mean value of the vehicle-treated arthritic group [(mean value of vehicle-treated arthritic group−mean value of treated arthritic group/mean value of vehicle-treated arthritic group)*100]. Body weight was expressed in grams. Hindpaws (left and right) weight was expressed in grams. Cytokine levels (IL-6, IL-1β, TNF-α and TGF-β1) of each hind paw was expressed in pg/ml. Circulating levels of TGF-β1 was expressed in pg/ml. Radiological index for each parameter (demineralization, erosions, periostal reaction, soft tissue damage, space joint, osteogenesis deformity) and total radiological index (total score) were calculated from the sum of the scores obtained for each parameter. The inter-group significances of the deviations between the values of vehicle-treated group (arthritic rats) and vehicle-treated group (non arthritic rats) were assessed by the Student t test or Mann-Whitney Rank Sum Test when equal variance or normality test failed. The inter-group significances of the deviations between the values of vehicle-treated group (arthritic rats) and E3- and 911- and Indomethacin-treated groups were assessed by the 1-way analysis of variance ANOVA followed by the non-paired Dunnett t test. A probability of P<0.05 was considered as significant. All statistical analysis was performed by the Sigmastat™ software.

[3] = test system: complete Freund's adjuvant (CFA)-induced chronic arthritis; assay: CFA arthritis rats, hindpaw weight; details: arthritic rats; E3 1 mg/kg or 911 10 mg/kg i.v. D14+D19, indomethacin 3 mg/kg p.o. over 10 days; D24
Description: On Day 24 (5 days after the last i.v. bolus injection or 24 hours after the last p.o. administration) (after X-rays radiographies), each animal hindpaw (arthritic and non arthritic rats) was weighed and was collected in a labelled polyethylene vial. Tissue samples were frozen in liquid nitrogen and stored at −80° C.
as §1

[4] = arthritic rats, E3 1 mg/kg or 911 10 mg/kg i.v. D14+D19, indomethacin 3 mg/kg p.o., D24

## COc1ccc2c(c1)c(CC(=O)O)c(C)n2C(=O)c1ccc(Cl)cc1 [Indomethacin, reference compound]
[1]
  effect on blood parameters compared to vehicle-treated arthritic group: did not affect the blood parameters
  Hematocrit: 35.0 ± 1.5%
  Hemoglobin: 11.8 ± 0.6 g/dL
  Platelets: 705 ± 111 10^3/mm^3
  Red blood cells: 6.93 ± 0.31 10^6/mm^3
  White blood cells: 21.7 ± 2.5 10^3/mm^3
[2]; indomethacin 3 mg/kg/day p.o. 10 days
  decrease of X-ray total score in comparison to vehicle-treated arthritic rats: about 10.7
[2]; [4]
  X-ray score: Deformity: 0.4 ± 0.2
  X-ray score: Demineralization: 0.3 ± 0.2
  X-ray score: Erosions: 0.9 ± 0.2
  X-ray score: Periostal reaction: 0.7 ± 0.3
  X-ray score: Soft tissue damage: 1.0 ± 0.2
  X-ray score: Space joint: 1.0 ± 0.2
  X-ray score: osteogenesis: 0.1 ± 0.1
[3]
  left hindpaw weight: 2.23±0.04 grams
  right hindpaw weight: 2.20±0.05 grams

B1: E3: humanized, affinity matured anti-NGF antagonist antibody; variable regions SEQ ID NO:1 and 2; human IgG2a (A330P331 to S330S331), kappa (antibody, V domains shown)
VH: QVQLQESGPGLVKPSETLSLTCTVSGFSLIGYDLNWIRQPPGKGLEWIGIIWGDGTTDYNSAVKSRVTISKDTSKNQFSLKLSSVTAADTAVYYCARGGYWYATSYYFDYWGQGTLVTVS
VL: DIQMTQSPSSLSASVGDRVTITCRASQSISNNLNWYQQKPGKAPKLLIYYTSRFHSGVPSRFSGSGSGTDFTFTISSLQPEDIATYYCQQEHTLPYTFGQGTKLEIKRT
modifications: human IgG2a constant (A330S/P331S) and kappa constant missing
[1]
  effect on blood parameters compared to vehicle-treated arthritic group: did not affect the blood parameters
  Hematocrit: 38.5 ± 1.0%
  Hemoglobin: 12.9 ± 0.3 g/dL
  Platelets: 827 ± 77 10^3/mm^3
  Red blood cells: 7.74 ± 0.17 10^6/mm^3
  White blood cells: 19.1 ± 1.2 10^3/mm^3
[2]; [4]
  X-ray score: Deformity: 1.8 ± 0.2
  X-ray score: Demineralization: 2.0 ± 0.2
  X-ray score: Erosions: 2.4 ± 0.3
  X-ray score: Periostal reaction: 0.8 ± 0.2
  X-ray score: Soft tissue damage: 3.3 ± 0.3
  X-ray score: Space joint: 2.7 ± 0.2
  X-ray score: osteogenesis: 1.2 ± 0.2
[2]; score 0-28, arthritic rats, E3 1 mg/kg or 911 10 mg/kg i.v. D14+D19, indomethacin 3 mg/kg p.o., D24
  X-ray TOTAL score: 14.2±1.3
[3]
  left hindpaw weight: 3.86±0.14 grams
  right hindpaw weight: 3.72±0.13 grams

Source: patent publication US20080182978A1, “ANTI-NGF ANTIBODIES AND METHODS USING SAME” (RINAT NEUROSCIENCE CORP, priority 2002, published 2008)
